According to patent US20250136638A1, “9(11)-UNSATURATED NEUROACTIVE STEROIDS AND THEIR METHODS OF USE” (SAGE THERAPEUTICS, INC., priority 2018, published 2025):

Target: rat brain cortical membranes ([35S]-TBPS binding, GABA receptor complex)
Experiment: Steroid inhibition of [35S]-TBPS binding
Details: 3 nM [35S]-TBPS, in the presence of 5 mM GABA
Method: [^35S]-t-Butylbicyclophosphorothionate (TBPS) binding assays using rat brain cortical membranes in the presence of 5 mM GABA has been described (Gee et al, J. Pharmacol. Exp. Ther. 1987, 241, 346-353; Hawkinson et al, Mol. Pharmacol. 1994, 46, 977-985; Lewin, A. H et al., Mol. Pharmacol. 1989, 35, 189-194).
Briefly, cortices are rapidly removed following decapitation of carbon dioxide-anesthetized Sprague-Dawley rats (200-250 g). The cortices are homogenized in 10 volumes of ice-cold 0.32 M sucrose using a glass/teflon homogenizer and centrifuged at 1500×g for 10 min at 4° C. The resultant supernatants are centrifuged at 10,000×g for 20 min at 4° C. to obtain the P2 pellets. The P2 pellets are resuspended in 200 mM NaCl/50 mM Na—K phosphate pH 7.4 buffer and centrifuged at 10,000×g for 10 min at 4° C. This washing procedure is repeated twice and the pellets are resuspended in 10 volumes of buffer. Aliquots ([…]) of the membrane suspensions are incubated with 3 nM [^35S]-TBPS and […] aliquots of test drug dissolved in dimethyl sulfoxide (DMSO) (final 0.5%) in the presence of 5 mM GABA. The incubation is brought to a final volume of 1.0 mL with buffer. Nonspecific binding is determined in the presence of […] and ranged from 15 to 25%. Following a 90 min incubation at room temp, the assays are terminated by filtration through glass fiber filters (Schleicher and Schuell No. 32) using a cell harvester (Brandel) and rinsed three times with ice-cold buffer. Filter bound radioactivity is measured by liquid scintillation spectrometry. Non-linear curve fitting of the overall data for each drug averaged for each concentration is done using Prism (GraphPad). […] The concentration of test compound producing 50% inhibition (IC50) of specific binding and the maximal extent of inhibition (Imax) are determined for the individual experiments with the same model used for the overall data and then the means±SEM.s of the individual experiments are calculated.
Various compounds are or can be screened to determine their potential as modulators of [^35S]-TBPS binding in vitro. These assays are or can be performed in accordance with the above.

## CC(=O)[C@H]1CC[C@H]2[C@@H]3CC[C@H]4C[C@](C)(O)CC[C@]4(C)C3=CC[C@]12C [Example 1, 1-((3R,5S,8S,10S,13S,14S,17S)-3-hydroxy-3,10,13-trimethyl-2,3,4,5,6,7,8,10,12,13,14,15,16,17-tetradecahydro-1H-cyclopenta[a]phenanthren-17-yl)ethan-1-one]
  IC50: 100 to 1000 nM

## C[C@@]1(O)CC[C@]2(C)C3=CC[C@]4(C)[C@@H](C(=O)Cn5cc(C#N)cn5)CC[C@H]4[C@@H]3CC[C@H]2C1 [Example 2, 1-(2-((3R,5S,8S,10S,13S,14S,17S)-3-hydroxy-3,10,13-trimethyl-2,3,4,5,6,7,8,10,12,13,14,15,16,17-tetradecahydro-1H-cyclopenta[a]phenanthren-17-yl)-2-oxoethyl)-1H-pyrazole-4-carbonitrile]
  IC50: 10 to 100 nM

## C[C@@]1(O)CC[C@]2(C)C3=CC[C@]4(C)[C@H](C(=O)Cn5cc(C#N)cn5)CC[C@H]4[C@@H]3CC[C@H]2C1 [Example 3, 1-(2-((3R,5S,8S,10S,13S,14S,17R)-3-hydroxy-3,10,13-trimethyl-2,3,4,5,6,7,8,10,12,13,14,15,16,17-tetradecahydro-1H-cyclopenta[a]phenanthren-17-yl)-2-oxoethyl)-1H-pyrazole-4-carbonitrile]
  IC50: 1000 to 10000 nM

## Cc1nnn(CC(=O)[C@H]2CC[C@H]3[C@@H]4CC[C@H]5C[C@](C)(O)CC[C@]5(C)C4=CC[C@]23C)n1 [Example 4, 1-((3R,5S,8S,10S,13S,14S,17S)-3-hydroxy-3,10,13-trimethyl-2,3,4,5,6,7,8,10,12,13,14,15,16,17-tetradecahydro-1H-cyclopenta[a]phenanthren-17-yl)-2-(5-methyl-2H-tetrazol-2-yl)ethan-1-one]
  IC50: 100 to 1000 nM

## Cc1nnnn1CC(=O)[C@H]1CC[C@H]2[C@@H]3CC[C@H]4C[C@](C)(O)CC[C@]4(C)C3=CC[C@]12C [Example 5, 1-((3R,5S,8S,10S,13S,14S,17S)-3-hydroxy-3,10,13-trimethyl-2,3,4,5,6,7,8,10,12,13,14,15,16,17-tetradecahydro-1H-cyclopenta[a]phenanthren-17-yl)-2-(5-methyl-1H-tetrazol-1-yl)ethan-1-one]
  IC50: 100 to 1000 nM

## C[C@@]1(O)CC[C@]2(C)C3=CC[C@]4(C)[C@@H](C(=O)Cn5ccnn5)CC[C@H]4[C@@H]3CC[C@H]2C1 [Example 6, 1-((3R,5S,8S,10S,13S,14S,17S)-3-hydroxy-3,10,13-trimethyl-2,3,4,5,6,7,8,10,12,13,14,15,16,17-tetradecahydro-1H-cyclopenta[a]phenanthren-17-yl)-2-(1H-1,2,3-triazol-1-yl)ethan-1-one]
  IC50: 100 to 1000 nM

## C[C@@]1(O)CC[C@]2(C)C3=CC[C@]4(C)[C@@H](C(=O)Cn5nccn5)CC[C@H]4[C@@H]3CC[C@H]2C1 [Example 7, 1-((3R,5S,8S,10S,13S,14S,17S)-3-hydroxy-3,10,13-trimethyl-2,3,4,5,6,7,8,10,12,13,14,15,16,17-tetradecahydro-1H-cyclopenta[a]phenanthren-17-yl)-2-(2H-1,2,3-triazol-2-yl)ethan-1-one]
  IC50: 100 to 1000 nM

## CC(=O)[C@H]1CC[C@H]2[C@@H]3CC[C@@H]4C[C@](C)(O)CC[C@]4(C)C3=CC[C@]12C [Example 8, 1-((3R,5R,8S,10S,13S,14S,17S)-3-hydroxy-3,10,13-trimethyl-2,3,4,5,6,7,8,10,12,13,14,15,16,17-tetradecahydro-1H-cyclopenta[a]phenanthren-17-yl)ethan-1-one]
  IC50: 10 to 100 nM

## C[C@@]1(O)CC[C@]2(C)C3=CC[C@]4(C)[C@@H](C(=O)Cn5cc(C#N)cn5)CC[C@H]4[C@@H]3CC[C@@H]2C1 [Example 9, 1-(2-((3R,5R,8S,10S,13S,14S,17S)-3-hydroxy-3,10,13-trimethyl-2,3,4,5,6,7,8,10,12,13,14,15,16,17-tetradecahydro-1H-cyclopenta[a]phenanthren-17-yl)-2-oxoethyl)-1H-pyrazole-4-carbonitrile]
  IC50: 10 to 100 nM

## Cc1nnn(CC(=O)[C@H]2CC[C@H]3[C@@H]4CC[C@@H]5C[C@](C)(O)CC[C@]5(C)C4=CC[C@]23C)n1 [Example 10, 1-((3R,5R,8S,10S,13S,14S,17S)-3-hydroxy-3,10,13-trimethyl-2,3,4,5,6,7,8,10,12,13,14,15,16,17-tetradecahydro-1H-cyclopenta[a]phenanthren-17-yl)-2-(5-methyl-2H-tetrazol-2-yl)ethan-1-one]
  IC50: 10 to 100 nM

## Cc1nnnn1CC(=O)[C@H]1CC[C@H]2[C@@H]3CC[C@@H]4C[C@](C)(O)CC[C@]4(C)C3=CC[C@]12C [Example 11, 1-((3R,5R,8S,10S,13S,14S,17S)-3-hydroxy-3,10,13-trimethyl-2,3,4,5,6,7,8,10,12,13,14,15,16,17-tetradecahydro-1H-cyclopenta[a]phenanthren-17-yl)-2-(5-methyl-1H-tetrazol-1-yl)ethan-1-one]
  IC50: 100 to 1000 nM

## C[C@@]1(O)CC[C@]2(C)C3=CC[C@]4(C)[C@@H](C(=O)Cn5ccnn5)CC[C@H]4[C@@H]3CC[C@@H]2C1 [Example 12, 1-((3R,5R,8S,10S,13S,14S,17S)-3-hydroxy-3,10,13-trimethyl-2,3,4,5,6,7,8,10,12,13,14,15,16,17-tetradecahydro-1H-cyclopenta[a]phenanthren-17-yl)-2-(1H-1,2,3-triazol-1-yl)ethan-1-one]
  IC50: 100 to 1000 nM

## C[C@@]1(O)CC[C@]2(C)C3=CC[C@]4(C)[C@@H](C(=O)Cn5nccn5)CC[C@H]4[C@@H]3CC[C@@H]2C1 [Example 13, 1-((3R,5R,8S,10S,13S,14S,17S)-3-hydroxy-3,10,13-trimethyl-2,3,4,5,6,7,8,10,12,13,14,15,16,17-tetradecahydro-1H-cyclopenta[a]phenanthren-17-yl)-2-(2H-1,2,3-triazol-2-yl)ethan-1-one]
  IC50: 10 to 100 nM

## CCOC[C@@]1(O)CC[C@]2(C)C3=CC[C@]4(C)[C@@H](C(C)=O)CC[C@H]4[C@@H]3CC[C@H]2C1 [Example 14, 1-((3R,5S,8S,10S,13S,14S,17S)-3-(ethoxymethyl)-3-hydroxy-10,13-dimethyl-2,3,4,5,6,7,8,10,12,13,14,15,16,17-tetradecahydro-1H-cyclopenta[a]phenanthren-17-yl)ethan-1-one]
  IC50: 1000 to 10000 nM

## CCOC[C@@]1(O)CC[C@]2(C)C3=CC[C@]4(C)[C@@H](C(C)=O)CC[C@H]4[C@@H]3CC[C@@H]2C1 [Example 15, 1-((3R,5R,8S,10S,13S,14S,17S)-3-(ethoxymethyl)-3-hydroxy-10,13-dimethyl-2,3,4,5,6,7,8,10,12,13,14,15,16,17-tetradecahydro-1H-cyclopenta[a]phenanthren-17-yl)ethan-1-one]
  IC50: 100 to 1000 nM

## COC[C@@]1(O)CC[C@]2(C)C3=CC[C@]4(C)[C@@H](C(C)=O)CC[C@H]4[C@@H]3CC[C@@H]2C1 [Example 16, 1-((3R,5R,8S,10S,13S,14S,17S)-3-hydroxy-3-(methoxymethyl)-10,13-dimethyl-2,3,4,5,6,7,8,10,12,13,14,15,16,17-tetradecahydro-1H-cyclopenta[a]phenanthren-17-yl)ethan-1-one]
  IC50: 100 to 1000 nM

## COC[C@@]1(O)CC[C@]2(C)C3=CC[C@]4(C)[C@@H](C(=O)Cn5cc(C#N)cn5)CC[C@H]4[C@@H]3CC[C@@H]2C1 [Example 17, 1-(2-((3R,5R,8S,10S,13S,14S,17S)-3-hydroxy-3-(methoxymethyl)-10,13-dimethyl-2,3,4,5,6,7,8,10,12,13,14,15,16,17-tetradecahydro-1H-cyclopenta[a]phenanthren-17-yl)-2-oxoethyl)-1H-pyrazole-4-carbonitrile]
  IC50: 10 to 100 nM
